Data taken from article PMC7230731 (Marine Drugs, 2020).

How the values were obtained:
[1] = tested on: MCF-7 cells; assay: Annexin V-FITC/PI apoptosis assay; type: cell-based, human; conditions: IC50 concentration; for Total (L.R % + U.R %): early + late apoptosis
Procedure: Annexin V-based flow cytometry analysis is a useful tool to investigate whether cell death is pertaining to physiological apoptosis or nonspecific necrosis. Evaluation of the apoptotic effect of bis-indoles 7e and 9a was carried out using AnxV-FITC/DAPI dual staining assay (Figure 4).
The apoptotic action of bis-indoles 7e and 9a was further explored through the investigation of their effect on the phosphatidylserine externalization in breast cancer MCF-7 cells, using Annexin-V-FITC Apoptosis Detection Kit according to manufacturer’s protocol, as reported earlier. […]
4. Annexin V-FITC Apoptosis Assay
Phosphatidylserine externalization was assayed using Annexin V-FITC/PI apoptosis detection kit (BD Biosciences, USA) according to the manufacturer’s instructions. Breast cancer MCF-7 cells were cultured to a monolayer then treated with bis-indoles 7e and 9a at their IC50 concentration. Briefly, cells were then harvested via trypsinization, and rinsed twice in PBS followed by binding buffer. Moreover, cells were re-suspended in 100 μL of binding buffer with the addition of 1 μL of FITC-Annexin V followed by an incubation period of 30 min at 4 °C. Cells were then rinsed in binding buffer and resuspended in 150 μL of binding buffer with the addition of 1 μL of DAPI (1 μg/μL in PBS). Cells were then analyzed using the flow cytometer BD FACS Canto II and the results were interpreted with FlowJo7.6.4 software (Tree Star, Ashland, OR, USA).

[2] = biological target: T1, CDK2 (Homo sapiens, UniProt P24941); assay: CDK2 kinase inhibition (Reaction Biology HotSpot); type: biochemical; conditions: single dose of 10 µM, read-out: % Enzyme Inhibitory Activity
T1 construct: purchased Reaction Biology Corp. (Kinase HotSpot service)
Procedure: The in vitro CDK2 kinase inhibition assay was carried out by Reaction Biology Corp. (Reaction Biology Corp., Chester, PA, USA) Kinase HotSpotSM service (http://www.reactionbiology.com).
5. CDK2 kinase inhibitory activity
Reaction Biology Corp. Kinase HotSpotSM service
(http://www.reactionbiology.com) was used for screening of tested compounds. CDK2 Kinase inhibitory activity was assessed by the HotSpot assay platform, which contained specific kinase/substrate pairs along with required cofactors. Base reaction buffer:
0.1 mM Na3VO4, 2 mM DTT, 1% DMSO. Testing compounds were dissolved in 100% DMSO to specific concentration. The serial dilution was conducted by Integra Viaflo Assist in DMSO. The reaction mixture containing the examined compound and 33P-ATP was incubated at room temperature for 2 h and radioactivity was detected by filter-binding method. Kinase activity data were expressed as the percent remaining kinase activity in test samples compared to vehicle (dimethyl sulfoxide) reactions.

[3] = tested on: MCF-10A cells; assay: SRB cytotoxicity assay, non-tumorigenic MCF-10A; type: cell-based, human; conditions: for Selectivity Index MCF-10A/MCF-7: IC50 MCF-10A / IC50 MCF-7; for IC50: non-tumorigenic human breast epithelial MCF-10A cells, SRB assay
Source text: The two examined human breast cancer cell lines (MCF-7 and Breast MDA-MB-231), and non-tumorigenic human breast epithelial cell line (MCF-10A) have been obtained from the American Type Culture Collection (ATCC). Assessment of cytotoxicity for target indole derivatives has been performed following the SRB colorimetric assay procedures, as reported earlier.
1. Anti-proliferative action toward human breast cell lines
The two examined human breast cancer cell lines (MCF-7 and Breast MDA-MB-231), and non-tumorigenic human breast epithelial cell line (MCF-10A) have been obtained from American Type Culture Collection (ATCC). The cells were maintained in Dulbecco's modified Eagle's medium (DMEM) supplemented with 10% heat inactivated fetal calf serum (GIBCO), penicillin (100 U/ml) and streptomycin (100 µg/ml) at 37 °C in humidified atmosphere containing 5% CO2. Cells at a concentration of 0.50 x 106 were grown in a 25 cm2 flask in 5 ml of culture medium.
The anti-proliferative activity of the tested compounds was measured in vitro using the Sulfo-Rhodamine-B stain (SRB) assay. Briefly, Cells were inoculated in 96-well microtiter plate (5X104 cells/ well) for 24 h before treatment with the tested compounds to allow attachment of cell to the wall of the plate. Tested compounds were dissolved in DMSO at 1 mg/ml immediately before use and diluted to the appropriate volume just before addition to the cell culture. Different concentrations of tested compounds, doxorubicin and sorafenib were added to the cells (three wells were prepared for each individual dose). Cells were incubated with the compounds for 48 h at 37°C and in atmosphere of 5% CO2. After 48 h cells were fixed, washed, and stained for 30 min with 0.4% (w/v) SRB dissolved in 1% acetic acid. Unbound dye was removed by four washes with 1% acetic acid, and attached stain was recovered with Tris-EDTA buffer. Color intensity was measured in an ELISA reader. The relation between percent of surviving fraction and drug concentration is plotted to get the survival curve for each cell line. […]

[4] = tested on: p53; assay: ELISA immunoassay, p53 level; type: cell-based, human; conditions: MCF-7 cells; for p53: IC50 concentration, 48 h
Procedure: Moreover, their effect on the level of caspase-3; the executioner caspase and p53 was evaluated in the MCF-7 cell line. […] In addition, they augmented the level of p53 by 15.4- and 11.75-fold, respectively in comparison to the control (Table 5, Figure 3).
Effects of treatment of breast cancer MCF-7 cells with bis-indoles 7e and 9a on the expression levels of the pro-apoptotic markers (Bax, caspase-3, and p53) in addition to the anti-apoptotic protein Bcl-2 marker was assessed by the use of ELISA colorimetric kits as per the manufacturer’s instructions, as described earlier.
The levels of the pro-apoptotic markers (Bax, caspase-3 and p53) as well as the anti-apoptotic marker Bcl-2 were determined using ELISA colorimetric kits per the manufacturer’s instructions. Breast cancer MCF-7 cells were cultured as a monolayer in T-25 flasks and were seeded to attain 30% confluency prior to treatment. Cells were […]
At the end of treatment, cells were collected via trypsinization and centrifuged at 10,000 rpm. The pellet was then rinsed with PBS and lysed in RIPA lysis buffer at 4 °C for 45 min, then centrifuged at 14,000 rpm for 20 min to remove the cellular debris. Lysates were then collected and stored at −80 °C for later protein determination using Pierce BCA Protein Assay Kit according to manufacturer’s recommendations.
The cell lysate was diluted 10 times, and 100 μL ([…]) was added to the wells of four separate microtiter plates for the four ELISA kits that were pre-coated with primary antibodies specific to Bax, Bcl-2, caspase-3 and p53 proteins, respectively. A secondary biotin-linked antibody specific to the protein captured by the primary antibody was further added to bind the captured protein, forming a “sandwich” of specific antibodies around the desired protein in the cell lysate. The streptavidin-HRP complex was then used to bind the biotin-linked secondary antibody through its streptavidin portion. The HRP domain reacted with the added TMB substrate to form a colored product that measured at 450 nm by a plate reader ChroMate-4300 after the reaction was terminated via the addition of stop solution. […]

Structure (SMILES) | Early Apoptosis (Lower Right %) [1] | Late Apoptosis (Upper Right %) [1] | increase in total apoptosis percentage vs control [1] | Total (L.R % + U.R %) [1] | inhibition at 10 µM [2] | Selectivity Index MCF-10A/MCF-7 [3] | IC50 [3] | increase of p53 level vs control [4] | p53 [4]
O=C(Cc1c[nH]c2ccccc12)NN=C1C(=O)Nc2ccc([N+](=O)[O-])cc21 [Compound 7e, 2-(1H-Indol-3-yl)-N′-(5-nitro-2-oxoindolin-3-ylidene)acetohydrazide] | 9.56% | 21.76% | 23.7 fold | 31.32% | 16% | 38.7 | 17.1 µM | 15.4 fold | 631.8 ± 35.8 pg/mg
C=CCN1C(=O)C(=NNC(=O)Cc2c[nH]c3ccccc23)c2ccccc21 [Compound 9a, N′-(1-Allyl-2-oxoindolin-3-ylidene)-2-(1H-indol-3-yl)acetohydrazide] | 7.01% | 15.20% | 16.8 fold | 22.21% | 23% | 18.3 | 23.5 µM | 11.75 fold | 482.3 ± 27.4 pg/mg
